Reference: patent publication US20220326218A1, “COMPOSITION AND METHOD FOR INHIBITING BORC COMPLEX TO TREAT CANCERS WITH NF1 DEFICIENCY AND DYSREGULATED RAS SIGNALING” (THE TRUSTEES OF DARTMOUTH COLLEGE, priority 2019, published 2022)
Counter-ions that a name gives are not always drawn.

Legend:
Assay type in all cases: cell-based, human
sequestosome-1 (p62) = test: Immunofluorescence staining for p62; details: U87-MG, 24 h; 2 μM Y102, 50 μM HCQ; HCQ and Y102 compared with each other
Protocol: (§1) U87-MG cells were plated at a concentration of 50,000 cells/well onto precoated poly-D-lysine (PDL) coverslips (Neuvitro) in 24-well plates (Falcon) and allowed to adhere overnight. Medium was removed and replaced with treatment-laced media normalized to DMSO, and cells were treated for the indicated timepoints. At the time of collection, cells were washed with PBS and fixed with 4% paraformaldehyde without methanol (EMS) or 100% methanol (Fischer). Coverslips were washed with Tween20-containing PBS (PBST; Fischer). Following permeabilization with 0.5% Triton X-100 in PBS (Fischer), coverslips were blocked for 1 h at room temperature in IF Buffer (0.05% azide, 0.2% Triton X-100, 2% Normal Goat Serum or, for 8-OHG, Normal Donkey Serum). The following primary antibodies were used for 1 hour at room temperature unless specified: AlexaFluor 488 pre-conjugated anti-γ-H2AX (N1-431) mouse monoclonal (30 minutes; BD Biosciences), anti-cleaved caspase 3 (Asp175) rabbit polyclonal (Cell Signaling), anti-SQSTM1/p62 (D-3) mouse monoclonal (Santa Cruz), anti-8-Hydroxyguanosine goat polyclonal (1:200; Millipore), anti-LAMP1 (D4O1S) mouse monoclonal (O/N at 4° C.; Cell Signaling), anti-BNIP3L/Nix (D4R4B) rabbit monoclonal (O/N at 4° C.; Cell Signaling), anti-FLAG (M2) mouse monoclonal (2 hours at 37° C.; Sigma-Aldrich). […]

p62 = test: Western immunoblotting of autophagy marker p62; details: U87-MG, 12 h treatment +/- 12 h HCQ
Protocol: (§2) U87-MG cells were plated at 500,000 cells/well in 6-well plates and allowed to adhere overnight (Falcon). Medium was removed and replaced with fresh medium containing drugs or compounds for the indicated timepoints. Cells were collected after treatment by washing with PBS, harvested with trypsin plus agitation to detach cells, pelleted in a centrifuge and resuspended in PBS to wash. Cells were transferred to 1.5 mL microcentrifuge tubes, pelleted, and resuspended in RIPA lysis buffer (50 mM Tris pH 8.0, 150 mM NaCl, 1% nonidet P40, 0.5% sodium deoxycholate, and 0.05% SDS) containing 1 mM NaVO4, 1 mM NaF, 1 mM phenylmethylsulfonyl fluoride, 0.1 μg/mL antipain, 1 μM aprotinin, 100 μM benzamidine HCl, 0.1 μg/mL leupeptin, 0.1 μg/mL pepstatin, and 0.1 μg/mL soybean trypsin inhibitor. Protein was quantified using a BCA assay kit (Pierce). 50 μg of protein was prepared in 1× Laemmli sample buffer (50 mM Tris pH 6.8, 0.02% w/v bromophenol blue, 2% w/v SDS, 10% v/v glycerol, 1% v/v beta-mercaptoethanol, 12.5 mM EDTA) and separated by SDS-PAGE on a 4-15% polyacrylamide gradient gel (Bio-Rad). […]

LC3-II = test: Western immunoblotting of autophagy marker LC3-I/II; details: U87-MG, 12 h treatment +/- 12 h HCQ co-treatment, total 24 h
Protocol: as §2

mitochondria = test: MitoTracker Red CMXRos staining of the mitochondrial network; details: U87-MG, 24 h; 2 μM Y102, 50 μM HCQ
Protocol: For MitoTracker Red CMXRos staining, 30 minutes prior to collection medium was removed and replaced with medium containing MitoTracker Red CMXRos at a final concentration of 100 nM (Molecular Probes). Following staining, cells were washed with PBS and fixed with 4% paraformaldehyde without methanol. Cells were washed with PBST, then permeabilized with 0.5% Triton X-100 in PBS. When co-staining with another marker, the staining procedure continued with the blocking step; otherwise, cells were stained with 0.33 μg/mL DAPI in PBS and mounted onto slides in ProLong Gold (Life Technologies).

BNIP3L/Nix = test: Immunofluorescence staining for mitophagy receptor BNIP3L/Nix; details: U87-MG, 24 h; 2 μM Y102, 100 μM CoCl2; CoCl2 and Y102 compared with each other
Protocol: as §1

Row | SMILES | p62 expression compared to DMSO (immunofluorescence) (sequestosome-1 (p62)) | p62 expression (western immunoblotting) (p62) | LC3-II accumulation (western immunoblotting) (LC3-II) | mitochondrial phenotype (perinuclear clustering) (mitochondria) | expression/localization of BNIP3L/Nix on the mitochondria compared to DMSO control (BNIP3L/Nix)
1 | CCN(CCO)CCCC(C)Nc1ccnc2cc(Cl)ccc12 (centres unmarked) [HCQ, Hydroxychloroquine Sulfate, reference compound] | similar | increased | resulted in LC3-II accumulation | not observed | 
2 | [Cl-].[Cl-].[Co+2] [CoCl2, Cobalt (II) Chloride, reference compound] |  |  |  |  | similar
